In ChEMBL document CHEMBL2413072, “Synthesis and in vitro anticancer studies of novel C-2 arylidene congeners of lantadenes” (2013):

Key:
Assay type in all cases: functional
RXF 393 = experiment: Growth inhibition of human RXF393 cells assessed as cell growth at 10^-4 M by sulforhodamine B assay; details: read-out: Activity
HCT-116 = experiment: Growth inhibition of human HCT116 cells by sulforhodamine B assay
SK-MEL-2 = experiment: Growth inhibition of human SK-MEL-2 cells assessed as cell growth at 10^-6 M by sulforhodamine B assay; details: read-out: Activity
DU-145 = experiment: Growth inhibition of human DU145 cells assessed as cell growth at 10^-7 M by sulforhodamine B assay; details: read-out: Activity
HL-60(TB) = experiment: Growth inhibition of human HL-60(TB) cells assessed as cell growth at 10^-7 M by sulforhodamine B assay; details: read-out: Activity
SNB-19 [1] = experiment: Growth inhibition of human SNB19 cells assessed as cell growth at 10^-8 M by sulforhodamine B assay; details: read-out: Activity
UACC-62 = experiment: Growth inhibition of human UACC62 cells assessed as cell growth at 10^-4 M by sulforhodamine B assay; details: read-out: Activity
SK-MEL-5 = experiment: Growth inhibition of human SK-MEL-5 cells by sulforhodamine B assay
IGROV-1 [2] = experiment: Growth inhibition of human IGROV1 cells assessed as cell growth at 10^-6 M by sulforhodamine B assay; details: read-out: Activity
HCT-15 = experiment: Growth inhibition of human HCT15 cells by sulforhodamine B assay
MDA-MB-231 = experiment: Growth inhibition of human MDA-MB-231 cells assessed as cell growth at 10^-8 M by sulforhodamine B assay; details: read-out: Activity
NCI-H23 = experiment: Growth inhibition of human NCI-H23 cells assessed as cell growth at 10^-6 M by sulforhodamine B assay; details: read-out: Activity
SR = experiment: Growth inhibition of human SR cells assessed as cell growth at 10^-7 M by sulforhodamine B assay; details: read-out: Activity
SN12C [3] = experiment: Growth inhibition of human SN12C cells assessed as cell growth at 10^-6 M by sulforhodamine B assay; details: read-out: Activity
HT-29 = experiment: Growth inhibition of human HT-29 cells assessed as cell growth at 10^-7 M by sulforhodamine B assay; details: read-out: Activity
[4] = Growth inhibition of human Hs 578T cells assessed as cell growth at 10^-6 M by sulforhodamine B assay; details: read-out: Activity
U-251 [5] = experiment: Growth inhibition of human U251 cells assessed as cell growth at 10^-4 M by sulforhodamine B assay; details: read-out: Activity
OVCAR-8 = experiment: Growth inhibition of human OVCAR8 cells assessed as cell growth at 10^-4 M by sulforhodamine B assay; details: read-out: Activity
SNB-19 [6] = experiment: Growth inhibition of human SNB19 cells assessed as cell growth at 10^-6 M by sulforhodamine B assay; details: read-out: Activity
786-0 [7] = experiment: Growth inhibition of human 786-0 cells assessed as cell growth at 10^-8 M by sulforhodamine B assay; details: read-out: Activity
[8] = Growth inhibition of human HCC2998 cells assessed as cell growth at 10^-7 M by sulforhodamine B assay; details: HCC 2998, read-out: Activity
MCF7 = experiment: Growth inhibition of human MCF7 cells assessed as cell growth at 10^-6 M by sulforhodamine B assay; details: read-out: Activity
786-0 [9] = experiment: Growth inhibition of human 786-0 cells assessed as cell growth at 10^-4 M by sulforhodamine B assay; details: read-out: Activity
NCI-H522 = experiment: Growth inhibition of human NCI-H522 cells assessed as cell growth at 10^-4 M by sulforhodamine B assay; details: read-out: Activity
COLO 205 = experiment: Growth inhibition of human COLO205 cells assessed as cell growth at 10^-6 M by sulforhodamine B assay; details: read-out: Activity
A549 = experiment: Growth inhibition of human A549/ATCC cells assessed as cell growth at 10^-6 M by sulforhodamine B assay; details: read-out: Activity
UO-31 = experiment: Growth inhibition of human UO31 cells assessed as cell growth at 10^-6 M by sulforhodamine B assay; details: read-out: Activity
PC-3 = experiment: Growth inhibition of human PC3 cells assessed as cell growth at 10^-4 M by sulforhodamine B assay; details: read-out: Activity
NCI-H322M = experiment: Growth inhibition of human NCI-H322M cells assessed as cell growth at 10^-8 M by sulforhodamine B assay; details: read-out: Activity
MDA-MB-435 = experiment: Growth inhibition of human MDA-MB-435 cells assessed as cell growth at 10^-4 M by sulforhodamine B assay; details: read-out: Activity
IGROV-1 [10] = experiment: Growth inhibition of human IGROV1 cells assessed as cell growth at 10^-7 M by sulforhodamine B assay; details: read-out: Activity
SN12C [11] = experiment: Growth inhibition of human SN12C cells by sulforhodamine B assay
786-0 [12] = experiment: Growth inhibition of human 786-0 cells by sulforhodamine B assay
M14 = experiment: Growth inhibition of human M14 cells assessed as cell growth at 10^-4 M by sulforhodamine B assay; details: read-out: Activity
MOLT-4 = experiment: Growth inhibition of human MOLT4 cells assessed as cell growth at 10^-8 M by sulforhodamine B assay; details: read-out: Activity
U-251 [13] = experiment: Growth inhibition of human U251 cells by sulforhodamine B assay
NCI-H460 = experiment: Growth inhibition of human NCI-H460 cells by sulforhodamine B assay
[14] = Growth inhibition of human NCI-ADR-RES cells assessed as cell growth at 10^-8 M by sulforhodamine B assay; details: read-out: Activity
SNB-75 = experiment: Growth inhibition of human SNB75 cells by sulforhodamine B assay
[15] = read-out: LC50 (the source's name)
[16] = read-out: pLC50 (the source's name) (converted)

CC1(C)C[C@@H](O)[C@]2(C(=O)O)CC[C@]3(C)C(=CC[C@@H]4[C@@]5(C)C/C(=C\C=C\c6ccccc6)C(=O)C(C)(C)[C@@H]5CC[C@]43C)[C@@H]2C1
growth at 100 µM (RXF 393): -92%
GI50 (HCT-116; read-out: GI50): 2.89 µM
LC50 (HCT-116; read-out: LC50): 82.7 µM
TGI (HCT-116; read-out: TGI): 11.2 µM
GI50 (HCT-116; read-out: pGI50 (converted)): 2.88 µM
LC50 (HCT-116; read-out: pLC50 (converted)): 83.2 µM
TGI (HCT-116; read-out: pTGI (converted)): 11.2 µM
growth at 1 µM (SK-MEL-2): 100%
growth at 0.1 µM (DU-145): 104%
growth at 0.1 µM (HL-60(TB)): 108%
growth at 0.01 µM (SNB-19 [1]): 94%
growth at 100 µM (UACC-62): -96%
GI50 (SK-MEL-5; read-out: GI50): 1.76 µM
CC50 (SK-MEL-5; [15]): 6.11 µM
TGI (SK-MEL-5; read-out: TGI): 3.28 µM
GI50 (SK-MEL-5; read-out: pGI50 (converted)): 1.74 µM
CC50 (SK-MEL-5; [16]): 6.17 µM
TGI (SK-MEL-5; read-out: pTGI (converted)): 3.31 µM
growth at 1 µM (IGROV-1 [2]): 113%
GI50 (HCT-15; read-out: GI50): 3.22 µM
LC50 (50% lethal concentration) (HCT-15; read-out: LC50): 45.1 µM
TGI (HCT-15; read-out: TGI): 11.9 µM
GI50 (HCT-15; read-out: pGI50 (converted)): 3.24 µM
LC50 (50% lethal concentration) (HCT-15; read-out: pLC50 (converted)): 44.7 µM
TGI (HCT-15; read-out: pTGI (converted)): 12 µM
growth at 0.01 µM (MDA-MB-231): 108%
growth at 1 µM (NCI-H23): 95%
growth at 0.1 µM (SR): 100%
growth at 1 µM (SN12C [3]): 91%
growth at 0.1 µM (HT-29): 100%
growth at 1 µM [4]: 87%
growth at 100 µM (U-251 [5]): -79%
growth at 100 µM (OVCAR-8): -67%
growth at 1 µM (SNB-19 [6]): 88%
growth at 0.01 µM (786-0 [7]): 101%
growth at 0.1 µM [8]: 97%
growth at 1 µM (MCF7): 95%
growth at 100 µM (786-0 [9]): -85%
growth at 100 µM (NCI-H522): -86%
growth at 1 µM (COLO 205): 108%
growth at 1 µM (A549): 88%
growth at 1 µM (UO-31): 92%
growth at 100 µM (PC-3): -67%
growth at 0.01 µM (NCI-H322M): 98%
growth at 100 µM (MDA-MB-435): -43%
growth at 0.1 µM (IGROV-1 [10]): 112%
GI50 (SN12C [11]; read-out: GI50): 2.92 µM
CC50 (SN12C [11]; [15]): 36.1 µM
TGI (SN12C [11]; read-out: TGI): 10.7 µM
GI50 (SN12C [11]; read-out: pGI50 (converted)): 2.88 µM
CC50 (SN12C [11]; [16]): 36.3 µM
TGI (SN12C [11]; read-out: pTGI (converted)): 10.7 µM
GI50 (786-0 [12]; read-out: GI50): 3.44 µM
CC50 (786-0 [12]; [15]): 43.1 µM
TGI (786-0 [12]; read-out: TGI): 12.8 µM
GI50 (786-0 [12]; read-out: pGI50 (converted)): 3.47 µM
CC50 (786-0 [12]; [16]): 42.7 µM
TGI (786-0 [12]; read-out: pTGI (converted)): 12.9 µM
growth at 100 µM (M14): -77%
growth at 0.01 µM (MOLT-4): 104%
GI50 (U-251 [13]; read-out: GI50): 2.58 µM
CC50 (U-251 [13]; [15]): 43.2 µM
TGI (U-251 [13]; read-out: TGI): 10.1 µM
GI50 (U-251 [13]; read-out: pGI50 (converted)): 2.57 µM
CC50 (U-251 [13]; [16]): 43.7 µM
TGI (U-251 [13]; read-out: pTGI (converted)): 10.2 µM
GI50 (NCI-H460; read-out: GI50): 2.67 µM
LC50 (NCI-H460; read-out: LC50): 44.1 µM
TGI (NCI-H460; read-out: TGI): 7.6 µM
GI50 (NCI-H460; read-out: pGI50 (converted)): 2.69 µM
LC50 (NCI-H460; read-out: pLC50 (converted)): 43.7 µM
TGI (NCI-H460; read-out: pTGI (converted)): 7.59 µM
growth at 0.01 µM [14]: 107%
GI50 (SNB-75; read-out: GI50): 4.27 µM
CC50 (SNB-75; [15]): 63.7 µM
TGI (SNB-75; read-out: TGI): 20.9 µM
GI50 (SNB-75; read-out: pGI50 (converted)): 4.27 µM
CC50 (SNB-75; [16]): 63.1 µM
TGI (SNB-75; read-out: pTGI (converted)): 20.9 µM
